Test results from PubChem BioAssay AID2165 (The Scripps Research Institute Molecular Screening Center, 2009).
pIC50: −log10 of the molar value. “And” between values parts separate entries of the source, which are not always exact repeats. Equal values may be shown once. The source made the active and inactive calls. No stated cut-off is given here; in the data, active means IC50 below about 9 µM; inactive means the rest.

Target: Tyrosine-protein kinase JAK2 (Homo sapiens) (UniProt O60674)
Assay: JAK2V617F project follow-up: kinase, reporter, cytotoxicity – HEL and Ba/F3 cells, late-stage follow-up (AID 2165)
Conditions: JAK2V617F panel: kinase, IRF1 reporter

Sequence of Tyrosine-protein kinase JAK2 (Homo sapiens) (O60674 whole entry, looked up, change not shown): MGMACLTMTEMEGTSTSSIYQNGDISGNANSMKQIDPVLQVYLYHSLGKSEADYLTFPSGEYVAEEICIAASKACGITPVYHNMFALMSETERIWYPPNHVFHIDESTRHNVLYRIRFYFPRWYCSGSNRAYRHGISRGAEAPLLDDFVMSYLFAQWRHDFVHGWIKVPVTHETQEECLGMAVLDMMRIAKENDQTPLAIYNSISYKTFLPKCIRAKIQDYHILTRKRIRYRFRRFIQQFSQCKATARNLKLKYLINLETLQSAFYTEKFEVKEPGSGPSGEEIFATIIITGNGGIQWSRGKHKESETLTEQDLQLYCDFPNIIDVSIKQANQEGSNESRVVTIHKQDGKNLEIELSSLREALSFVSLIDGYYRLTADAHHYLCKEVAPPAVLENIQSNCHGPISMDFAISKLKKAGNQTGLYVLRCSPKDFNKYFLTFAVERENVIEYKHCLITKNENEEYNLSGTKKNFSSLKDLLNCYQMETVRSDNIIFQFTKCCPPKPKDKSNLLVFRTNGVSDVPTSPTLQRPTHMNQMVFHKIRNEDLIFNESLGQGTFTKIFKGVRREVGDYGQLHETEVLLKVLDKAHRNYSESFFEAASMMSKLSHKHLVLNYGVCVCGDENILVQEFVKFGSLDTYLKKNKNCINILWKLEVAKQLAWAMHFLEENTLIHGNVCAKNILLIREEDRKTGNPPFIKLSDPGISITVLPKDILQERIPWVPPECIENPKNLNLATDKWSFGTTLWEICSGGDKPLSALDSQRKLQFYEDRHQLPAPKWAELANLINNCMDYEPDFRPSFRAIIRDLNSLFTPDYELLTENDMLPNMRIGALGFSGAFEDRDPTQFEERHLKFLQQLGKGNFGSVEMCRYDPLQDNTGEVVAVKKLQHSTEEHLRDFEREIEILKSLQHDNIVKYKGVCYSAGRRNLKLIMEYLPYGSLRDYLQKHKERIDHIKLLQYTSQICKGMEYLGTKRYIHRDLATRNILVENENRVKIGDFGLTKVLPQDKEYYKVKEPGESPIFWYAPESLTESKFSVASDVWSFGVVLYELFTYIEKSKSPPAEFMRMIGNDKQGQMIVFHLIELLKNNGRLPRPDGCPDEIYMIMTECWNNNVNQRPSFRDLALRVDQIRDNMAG

**Q.** With [O-][N+]1=c2ccc(Nc3ccccc3)cc2=NC12CCCCC2 as the compound, how does the pIC50 (Ba/F3, irf1 reporter) read?
**A.** 5.29

**Q.** What about the pIC50 (HEL, irf1 reporter) of the same compound?
**A.** 5.15

**Q.** c1ccc2c(CN3CCCCCC3)c[nH]c2c1 was tested. Which pIC50 (Ba/F3, irf1 reporter) did it give?
**A.** 4.84

**Q.** And the pIC50 (HEL, irf1 reporter)?
**A.** 4.80

**Q.** How did the pIC50 (Ba/F3, irf1 reporter) turn out when Cc1nc([N+](=O)[O-])c(Br)n1CC(=O)c1ccc2ccccc2c1 was run?
**A.** 5.29

**Q.** And the pIC50 (HEL, irf1 reporter)?
**A.** 4.68

**Q.** Which IC50 (Ba/F3, irf1 reporter) does the source give for Nc1nc(N)c2nc(-c3ccccc3)c(N)nc2n1 here?
**A.** > 40 µM (inactive)

**Q.** And the IC50 (HEL, irf1 reporter)?
**A.** > 40 µM (inactive)

**Q.** With Cc1ccc(C=CC(=O)c2c3c(c(C)[nH]c2=O)CCCC3)cc1 as the compound, how does the pIC50 (Ba/F3, irf1 reporter) read?
**A.** 5.22

**Q.** And the pIC50 (HEL, irf1 reporter)?
**A.** 4.62

**Q.** And the pIC50 (JAK2V617F)?
**A.** 5.47

**Q.** With CC(C)(C)/C(O)=C/c1nc2cc(Cl)ccc2oc1=O as the compound, how does the pIC50 (Ba/F3, irf1 reporter) read?
**A.** 5.38

**Q.** What about the pIC50 (HEL, irf1 reporter) of the same compound?
**A.** 4.90

**Q.** COc1cc2ncnc(Nc3ccc(O)c(Br)c3)c2cc1OC was tested. Which pIC50 (Ba/F3, irf1 reporter) did it give?
**A.** 5.66

**Q.** And the pIC50 (HEL, irf1 reporter)?
**A.** 5.53

**Q.** And the pIC50 (JAK2V617F)?
**A.** 4.52

**Q.** Cc1nn2c(NCc3ccccn3)c3c(nc2c1-c1ccccc1)CCC3 was tested. Which pIC50 (Ba/F3, irf1 reporter) did it give?
**A.** 4.97

**Q.** What about the pIC50 (HEL, irf1 reporter) of the same compound?
**A.** 5.02

**Q.** With O=C(CCl)N=c1sccn1Cc1ccccc1Cl as the compound, how does the pIC50 (Ba/F3, irf1 reporter) read?
**A.** 5.03

**Q.** What about the pIC50 (HEL, irf1 reporter) of the same compound?
**A.** 5.79

**Q.** Which IC50 (HEL, irf1 reporter) does the source give for Cc1cccc(OCC(=O)Nc2cccc(O)c2)c1 here?
**A.** > 40 µM (inactive)

**Q.** And the IC50 (JAK2V617F)?
**A.** > 40 µM (inactive)

**Q.** With Cc1ccc(O)c(NC(=O)COc2ccc(Br)cc2)c1 as the compound, how does the pIC50 (JAK2V617F) read?
**A.** 7.48

**Q.** Which IC50 (JAK2V617F) does the source give for Cc1cccc(OCC(=O)Nc2cccc(C)c2C)c1 here?
**A.** > 40 µM (inactive)

**Q.** How did the pIC50 (Ba/F3, irf1 reporter) turn out when CCOc1cc2ncnc(Nc3cccc(Br)c3)c2cc1OCC was run?
**A.** 5.63

**Q.** What about the pIC50 (HEL, irf1 reporter) of the same compound?
**A.** 5.59

**Q.** And the pIC50 (JAK2V617F)?
**A.** 5.15

**Q.** With COc1cc2ncnc(Nc3ccc(F)c(F)c3)c2cc1OC as the compound, how does the IC50 (HEL, irf1 reporter) read?
**A.** > 40 µM (inactive)

**Q.** What about the IC50 (JAK2V617F) of the same compound?
**A.** > 40 µM (inactive)

**Q.** What does the source list for Cc1[nH]c(=O)c(C(=O)/C=C/c2ccccc2F)c2c1CCCC2?
**A.** pIC50 (Ba/F3, irf1 reporter): 5.19 and 5.97; pIC50 (HEL, irf1 reporter): 5.41 and 6.10; pIC50 (JAK2V617F): 6.35

**Q.** How did the IC50 (JAK2V617F) turn out when Cc1ccc(O)c(NC(=O)COc2cccc(C)c2C)c1 was run?
**A.** > 40 µM (inactive)

**Q.** With Clc1cccc(Nc2ncnc3ccccc23)c1 as the compound, how does the IC50 (HEL, irf1 reporter) read?
**A.** > 40 µM (inactive)

**Q.** And the IC50 (JAK2V617F)?
**A.** > 40 µM (inactive)

**Q.** How did the pIC50 (Ba/F3, irf1 reporter) turn out when c1ccc2c(c1)CSc1sccc1C2=C1CCNCC1 was run?
**A.** 5.23

**Q.** And the IC50 (HEL, irf1 reporter)?
**A.** > 40 µM (inactive)

**Q.** Cc1ccc(Nc2nc(N)nc(CCl)n2)cc1 was tested. Which pIC50 (Ba/F3, irf1 reporter) did it give?
**A.** 4.90

**Q.** What about the pIC50 (HEL, irf1 reporter) of the same compound?
**A.** 5.25

**Q.** How did the pIC50 (Ba/F3, irf1 reporter) turn out when Cc1ccc2nc(C)cc(Nc3ccc([N+](=O)[O-])cc3)c2c1 was run?
**A.** 5.46

**Q.** And the pIC50 (HEL, irf1 reporter)?
**A.** 5.22

**Q.** How did the pIC50 (Ba/F3, irf1 reporter) turn out when Cc1ccc(C)c(Sc2ccc(NC(=O)CCl)cc2)c1 was run?
**A.** 5.66

**Q.** And the pIC50 (HEL, irf1 reporter)?
**A.** 4.74

**Q.** For CCc1cccc(Nc2ncnc3cc(OCCOC)c(OCCOC)cc23)c1, which IC50 (HEL, irf1 reporter) is on record?
**A.** > 40 µM (inactive)

**Q.** What about the IC50 (JAK2V617F) of the same compound?
**A.** > 40 µM (inactive)

**Q.** Which IC50 (HEL, irf1 reporter) does the source give for Cc1cccc(OCC(=O)Nc2ccccc2F)c1 here?
**A.** > 40 µM (inactive)

**Q.** And the IC50 (JAK2V617F)?
**A.** > 40 µM (inactive)

**Q.** Which IC50 (HEL, irf1 reporter) does the source give for Cc1nnc(NC(=O)COc2ccccc2)s1 here?
**A.** > 40 µM (inactive)

**Q.** And the IC50 (JAK2V617F)?
**A.** > 40 µM (inactive)

**Q.** How did the pIC50 (Ba/F3, irf1 reporter) turn out when O=C(CCl)NC(=O)NC12CC3CC(CC(C3)C1)C2 was run?
**A.** 5.45

**Q.** What about the pIC50 (HEL, irf1 reporter) of the same compound?
**A.** 5.10

**Q.** How did the pIC50 (Ba/F3, irf1 reporter) turn out when COc1ccc(OC)c(NS(=O)(=O)c2ccc(SC)cc2)c1 was run?
**A.** 4.64

**Q.** What about the IC50 (HEL, irf1 reporter) of the same compound?
**A.** > 40 µM (inactive)

**Q.** Which results are given for O=C1C=CC(=O)N1CCNc1ncc(C(F)(F)F)cc1Cl?
**A.** pIC50 (Ba/F3, irf1 reporter): 6.16; pIC50 (HEL, irf1 reporter): 5.01

**Q.** Which results are given for N#C/C(=C\c1ccc(O)c(O)c1)C(=O)NCCCc1ccccc1?
**A.** pIC50 (Ba/F3, irf1 reporter): 5.22; pIC50 (HEL, irf1 reporter): 4.79

**Q.** With CCC(C)[C@@H](NC(=O)OC(C)(C)C)c1nnc(S(=O)(=O)Cc2cccc(C)c2)o1 (some centres not stated) as the compound, how does the pIC50 (Ba/F3, irf1 reporter) read?
**A.** 6.62

**Q.** And the pIC50 (HEL, irf1 reporter)?
**A.** 4.66

**Q.** How did the pIC50 (Ba/F3, irf1 reporter) turn out when Cc1ccccc1CS(=O)(=O)c1nnc([C@H](CC(C)C)NC(=O)OC(C)(C)C)o1 was run?
**A.** 5.71

**Q.** What about the pIC50 (HEL, irf1 reporter) of the same compound?
**A.** 4.92

**Q.** With O=c1oc2ccc(Cl)cc2nc1/C=C(\O)c1ccco1 as the compound, how does the pIC50 (Ba/F3, irf1 reporter) read?
**A.** 5.26

**Q.** And the pIC50 (HEL, irf1 reporter)?
**A.** 5.32

**Q.** What does the source list for COc1cc2ncnc(Sc3ccc(Cl)cc3)c2cc1OC?
**A.** IC50 (HEL, irf1 reporter): > 40 µM (inactive); IC50 (JAK2V617F): > 40 µM (inactive)

**Q.** What does the source list for COc1cc2ncnc(N[C@H](C)c3ccccc3)c2cc1OC?
**A.** pIC50 (HEL, irf1 reporter): 4.88; pIC50 (JAK2V617F): 5.50

**Q.** With Cc1nc([N+](=O)[O-])c(Br)n1Cc1ccc(Cl)c(Cl)c1 as the compound, how does the pIC50 (Ba/F3, irf1 reporter) read?
**A.** 5.58

**Q.** What about the pIC50 (HEL, irf1 reporter) of the same compound?
**A.** 5.34

**Q.** Which results are given for O=C(CCl)N(C/C=C/c1ccccc1)c1ccc2c(c1)OCCO2?
**A.** pIC50 (Ba/F3, irf1 reporter): 6.30; pIC50 (HEL, irf1 reporter): 4.92

**Q.** What does the source list for N#C/C(=C\c1ccc(O)c(O)c1)C(=O)NCCCCc1ccccc1?
**A.** pIC50 (Ba/F3, irf1 reporter): 6.60; pIC50 (HEL, irf1 reporter): 5.48; pIC50 (JAK2V617F): 6.12

**Q.** How did the pIC50 (Ba/F3, irf1 reporter) turn out when Cc1cccc(CS(=O)(=O)c2nnc([C@H](Cc3ccccc3)NC(=O)OC(C)(C)C)o2)c1 was run?
**A.** 5.86

**Q.** And the pIC50 (HEL, irf1 reporter)?
**A.** 4.94

**Q.** What does the source list for C#CCSc1nsc(SCC#C)c1C#N?
**A.** pIC50 (Ba/F3, irf1 reporter): 5.17; IC50 (HEL, irf1 reporter): > 40 µM (inactive)

**Q.** Which results are given for CC(C)(C)c1cc(NC(=O)CCl)n(-c2ccccc2)n1?
**A.** pIC50 (Ba/F3, irf1 reporter): 5.07; pIC50 (HEL, irf1 reporter): 5.00

**Q.** Which IC50 (JAK2V617F) does the source give for Cc1cccc(NC(=O)COc2cccc(C)c2)c1 here?
**A.** > 40 µM (inactive)

**Q.** What does the source list for COc1cc2ncnc(Nc3ccc(OC(F)(F)F)cc3)c2cc1OC?
**A.** pIC50 (HEL, irf1 reporter): 5.42; IC50 (JAK2V617F): > 40 µM (inactive)

**Q.** Which results are given for COC1(OC)C(/C=C/c2ccc(Cl)cc2)C(C#N)(C#N)C1(OC)OC (configuration not stated)?
**A.** pIC50 (Ba/F3, irf1 reporter): 5.88; pIC50 (HEL, irf1 reporter): 5.18

**Q.** Which results are given for COCCOc1cc2ncnc(Nc3cccc(C#Cc4ccc(-c5ccccc5)cc4)c3)c2cc1OCCOC?
**A.** IC50 (HEL, irf1 reporter): > 40 µM (inactive); pIC50 (JAK2V617F): 5.42
